From US7745446B2, “Pyrazolo[1,5-c]pyrimidines” (Bayer Schering Pharma Aktiengesellschaft, priority 2004, dated 2010) come the findings set out here.

Assay [1] addresses T1, full-length Akt1 (inactive) (Homo sapiens, UniProt P31749).
T1 construct: recombinant full-length human Akt1 a containing N-terminal His6 tag; His6 (N); purchased Upstate, UK #14-279; host or cells: baculovirus infected Sf21 insect cells
In words: Biochemical Akt1 assay (full-length Akt1 inactive, PDK1-dependent activation, IMAP). As to conditions: PDK1 and PIP3 vesicles, 50 μM ATP; read-out: Inhibition of Akt1 activation (full-length Akt1, inactive): IC50. The procedure: The enzyme is purified using Ni2+/NTA-agarose (Upstate, UK; #14-279).
The enzyme is purified using Ni2+/NTA-agarose.
PDK1-dependent activation and subsequent enzymatic activity of Akt1: Activity of purified human Akt1 is routinely measured in an assay in which the enzyme is first activated by PDK1 in the presence of phosphatidylinositol-3,4,5-triphosphate (PIP3). Once activated, Akt1-dependent phosphorylation of a fluorescence labelled peptide substrate is measured by fluorescence polarisation using the IMAP technology (Molecular Devices).
The phospholipids are prepared as follows: 5 mg DOPC/DOPS are solved in 200 μl 10 mM Tris (pH 7.4) and 300 μg PIP3 are resuspended in 950 μl 10 mM Tris (pH 7.4) by pipetting. 950 μl solved PIP3 are mixed with 50 μl solved DOPC/DOPS and incubated for 2 h at a temperature below 20° C. Then the mixture is subjected to sonification for 30 min. at max. power until a translucent phopholipid vesicle preparation is obtained. Aliquots of the vesicle suspension are frozen at -80° C. until needed, likewise the solved DOPC/DOPS.
Assays are performed in 384-well plates. Incubations are carried out for 60 min. at room temperature. The reaction buffer mixture contained in a final volume of 25 μl: 10 mM Tris pH 7,4, 10 mM MgCl2. 1 mM DTT, and 0.1 mg/ml BSA. In contrast the activation buffer contained: 50 ng/well Akt1, 20 ng/well PDK1, 1.25 μM peptide substrat, 50 μM ATP, and phospholipid vesicles (1:20). Test compounds are added from stock solutions in DMSO before activation of Akt1 by PDK1. After the incubation the beads (IMAP binding reagent; Molecular Devices; 1:167) are added and the fluorescence polarization is measured (excitation 485 nm, emission 530 nm).

Assay [2] relates to phosphorylated GSK3 (Ser9) in MCF7 cells. In words: Cellular pGSK3 assay (pGSK3-ELISA). The assay is classed as cell-based. As to conditions: Homo sapiens, 48 h, read-out: GSK3 inhibition (pGSK3-ELISA): IC50. The method, then:
In order to study the cellular activity of the compounds according to the invention, an ELISA-based assay has been established for the phosphorylated glycogen synthetase kinase 3, GSK3. The assay is based on a solid phase sandwich ELISA that detects endogenous levels of the phosphorylated GSK3 (BioSource International, Inc.; Catalog #KH00461). A phospho-GSK3 (Ser9) antibody has been coated onto the microwells. After incubation with cell lysates, the coated antibody captures the phosphorylated GSK3 protein. Following extensive washing, GSK3 polyclonal antibody is added to detect the captured phospho-GSK3 protein. […] (anti-rabbit IgG-HRP) is then used to recognize the bound detection antibody. After the second incubation and washing to remove all the excess anti-rabbit IgG-HRP, a substrate solution is added, which is acted upon by the bound enzyme to produce color. The intensity of this colored product is directly proportional to the concentration of […] [pS9] present in the original specimen.
MCF7 cells (ATCC HTB-22) are seeded into 96 well plates at a density of 10000 cells/well.
Cells are harvested and lysed with brief vortexing in cell extraction buffer (10 mM Tris, pH 7.4, 100 mM NaCl, 1 mM EDTA, 1 mM EGTA, 1 mM NaF, 20 mM Na4P2O7, 2 mM Na3VO4, 1% Triton X-100, 10% glycerol, 0.1% SDS, 0.5% deoxycholate, 1 mM PMSF). The lysate are centrifuged for 10 minutes at 4° C. and the supernatant transferred to a new tube. 50 μl of sample diluent (standard diluent buffer, Biosource) are added and 100 μl of cell lysate transferred into the tube and vortexed. 100 μl of each diluted cell lysate are added to the appropriate well (phospho-GSK3 (Ser9) antibody coated microwells; BioSource) and incubated for 3 h at room temperature. The plates are washed 4 times with 1× wash buffer (Biosource). […] The absorbance is measured at 450 nm (Wallac Victor2; Perkin Elmer, USA) within 30 minutes after adding Stop solution. The analysis of the data is performed using a statistical program (Microsoft Excel, USA) and the inhibition of pGSK3 phosphorylation is determined.

T1 sequence (P31749 whole entry): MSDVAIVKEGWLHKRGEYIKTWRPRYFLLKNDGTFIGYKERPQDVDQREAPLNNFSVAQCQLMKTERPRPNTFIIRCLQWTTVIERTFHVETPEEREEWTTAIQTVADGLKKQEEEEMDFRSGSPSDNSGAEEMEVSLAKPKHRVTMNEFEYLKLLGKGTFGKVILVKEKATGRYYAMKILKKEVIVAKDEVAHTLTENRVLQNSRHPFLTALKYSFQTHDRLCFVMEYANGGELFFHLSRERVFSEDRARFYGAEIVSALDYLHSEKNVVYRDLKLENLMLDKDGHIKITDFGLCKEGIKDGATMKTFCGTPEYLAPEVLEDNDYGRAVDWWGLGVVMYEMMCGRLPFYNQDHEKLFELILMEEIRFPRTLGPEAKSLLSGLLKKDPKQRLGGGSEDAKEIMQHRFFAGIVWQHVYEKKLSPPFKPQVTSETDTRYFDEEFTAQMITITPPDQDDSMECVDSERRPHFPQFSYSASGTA

On to `COc1cccc(-c2ccc(-c3cc4c(Br)cnn4c(Nc4ccc(NC(=O)c5ccc(CN)cc5)cc4)n3)cc2)c1` [Example 87, 4-Aminomethyl-N-{4-[3-bromo-5-(3′-methoxy-biphenyl-4-yl)-pyrazolo[1,5-c]pyrimidin-7-ylamino]-phenyl}-benzamide], for which the concentration for half-maximal inhibition (IC50) in assay [1] was no more than 5 µM. For the compound `COc1cccc(-c2ccc(-c3cc4ccnn4c(Nc4ccc(NC(=O)c5ccc(CN)cc5)cc4)n3)cc2)c1` [Example 59, 4-Aminomethyl-N-{4-[5-(3′-methoxy-biphenyl-4-yl)-pyrazolo[1,5-c]pyrimidin-7-ylamino]-phenyl}-benzamide], the 50% inhibitory concentration (IC50) was less than 10 µM in assay [2] and no more than 5 µM in assay [1]. In the same order, the values of `O=C(Nc1cccc(Nc2nc(-c3cccc4c3oc3ccccc34)cc3ccnn23)c1)c1ccc2c(c1)CCNC2` [Example 63, 1,2,3,4-Tetrahydro-isoquinoline-6-carboxylic acid [3-(5-dibenzofuran-4-yl-pyrazolo[1,5-c]pyrimidin-7-ylamino)-phenyl]-amide] are less than 10 µM and no more than 5 µM.

In the case of `NCCCC(=O)Nc1ccc(Nc2nc(-c3cccc4c3oc3ccccc34)cc3ccnn23)cc1` [Example 24, 4-Amino-N-[4-(5-dibenzofuran-4-yl-pyrazolo[1,5-c]pyrimidin-7-ylamino)-phenyl]-butyramide], the IC50 in assay [2] is less than 10 µM; in assay [1], no more than 5 µM.
